# In patent US6841519B1, “Isoxazoline derivatives and herbicides containing the same as the active ingredient” (Kumiai Chemical Industry Co., Ltd., priority 1999, dated 2005):
# What was measured:
# Assay type in all cases: in vivo
# [1] = system: Setaria viridis (L.) Beauv. (Se); assay: Test for herbicidal effect by upland field soil treatment (Test Example 2), Se
# Method: (§1) [table] <Test Example 2> Test For Herbicidal Effect By Upland Field Soil Treatment An upland field soil was filed in a plastic pot of 80 cm^2. Seeds of Echinochloa crus-galli (L.) Beauv. var. crusgall (Ec) and Setaria viridis (L.) Beauv. (Se) were sowed, followed by covering with the same soil. Wettable powders produced in accordance with the Formulation 1 were diluted with water and sprayed uniformly: on the soil surface using a small sprayer, in an amount of 100 liters per 10 ares so that the amount of each active ingredient became 100 g per 10 ares. Then, breeding was made in a greenhouse, and the herbicidal effect of each wettable powder was examined at the 21st day from the treatment in accordance with the standard shown in Table 40.
# [2] = system: Echinochloa oryzicola Vasing. (Eo); assay: Test for herbicidal effect by paddy field soil treatment (Test Example 1); settings: application amount (active ingredient) 100 g/10 a, examined at the 21st day from the treatment, index per Table 40
# Method: <Test Example 1> Test For Herbicidal Effect By Paddy Field Soil Treatment A paddy field soil was filled in a plastic pot of 100 cm^2 and subjected to puddling. Then, seeds of Echinochloa oryzicola Vasing. (Eo) were sowed and water was filled in a depth of 3 cm. Next day, wettable powders produced in accordance with the Formulation 1 were diluted with water and dropped on the water surface. The application amount of each wettable powder was 100 g per 10 ares in terms of the active ingredient. Then, breeding was made in a greenhouse, and the herbicidal effect of each wettable powder was examined at the 21st day from the treatment in accordance with the standard shown in Table 40. [table]
# [3] = system: Echinochloa crus-galli (L.) Beauv. var. crusgall (Ec); assay: Test for herbicidal effect by upland field soil treatment (Test Example 2), Ec
# Method: as §1
# [4] = system: Echinochloa crus-galli (L.) Beauv. var. crusgalli (Ec); assay: Test for herbicidal effect by upland foliage treatment (Test Example 3); settings: 100 g/10 a active ingredient, examined at 14th day
# Method: Test For Herbicidal Effect By Upland Foliage Treatment
# An upland field soil was filed in a plastic pot of 80 cm^2. Seeds of Echinochloa crus-galli (L.) Beauv. var. crusgalli (Ec) were sowed. Breeding was made in a greenhouse for 2 weeks. Wettable powders produced in accordance with the Formulation 1 were diluted with water and sprayed on the whole foliage of plants from above the plants using a small sprayer in an amount of 100 liters per 10 ares so that the amount of each active ingredient became 100 g per 10 ares. Then, breeding was made in the greenhouse, and the herbicidal effect of each wettable powder was examined at the 14th day from the treatment in accordance with the standard shown in Table 40.
# [5] = application amount (active ingredient) 100 g/10 a, examined at the 21st day from the treatment, index per Table 40
# [6] = 100 g/10 a active ingredient, examined at 21st day
SMILES,"Herbicidal effect to Se [1, 5]",Herbicidal effect to Eo [2],"Herbicidal effect to Ec [3, 5]",Herbicidal effect to Ec [4],"Herbicidal effect to Se [1, 6]","Herbicidal effect to Ec [3, 6]"
CC1(C)CC(S(=O)(=O)Cc2cccc(F)c2)=NO1 [Compound 1-33],5 (A herbicidal effect or phytotoxicity of 90% or more),5 (A herbicidal effect or phytotoxicity of 90% or more),5 (A herbicidal effect or phytotoxicity of 90% or more),,,
CC1(C)CC(S(=O)(=O)Cc2ccc(F)cc2)=NO1 [Compound 1-34],5 (A herbicidal effect or phytotoxicity of 90% or more),5 (A herbicidal effect or phytotoxicity of 90% or more),5 (A herbicidal effect or phytotoxicity of 90% or more),,,
COc1cccc(CS(=O)(=O)C2=NOC(C)(C)C2)c1 [Compound 1-41],5 (A herbicidal effect or phytotoxicity of 90% or more),5 (A herbicidal effect or phytotoxicity of 90% or more),5 (A herbicidal effect or phytotoxicity of 90% or more),,,
COc1ccc(CS(=O)(=O)C2=NOC(C)(C)C2)cc1 [Compound 1-42],4 (A herbicidal effect or phytotoxicity of 70% to less than 90%),5 (A herbicidal effect or phytotoxicity of 90% or more),5 (A herbicidal effect or phytotoxicity of 90% or more),,,
CCC1(C)CC(S(=O)(=O)Cc2ccccc2F)=NO1 (stereo not shown) [Compound 1-189],5 (A herbicidal effect or phytotoxicity of 90% or more),5 (A herbicidal effect or phytotoxicity of 90% or more),5 (A herbicidal effect or phytotoxicity of 90% or more),,,
CCC1(C)CC(S(=O)(=O)Cc2ccc(F)cc2)=NO1 (stereo not shown) [Compound 1-191],5 (A herbicidal effect or phytotoxicity of 90% or more),5 (A herbicidal effect or phytotoxicity of 90% or more),5 (A herbicidal effect or phytotoxicity of 90% or more),,,
CCC1(C)CC(S(=O)(=O)Cc2ccc(Cl)cc2)=NO1 (stereo not shown) [Compound 1-194],5 (A herbicidal effect or phytotoxicity of 90% or more),5 (A herbicidal effect or phytotoxicity of 90% or more),5 (A herbicidal effect or phytotoxicity of 90% or more),,,
CCC1(C)CC(S(=O)(=O)Cc2ccccc2Br)=NO1 (stereo not shown) [Compound 1-195],5 (A herbicidal effect or phytotoxicity of 90% or more),5 (A herbicidal effect or phytotoxicity of 90% or more),5 (A herbicidal effect or phytotoxicity of 90% or more),,,
CCC1(C)CC(S(=O)(=O)Cc2ccc(C#N)cc2)=NO1 (stereo not shown) [Compound 1-329],5 (A herbicidal effect or phytotoxicity of 90% or more),5 (A herbicidal effect or phytotoxicity of 90% or more),5 (A herbicidal effect or phytotoxicity of 90% or more),,,
Fc1cccc(F)c1CSC1=NOC2(CCC2)C1 [Compound 1-381],4 (A herbicidal effect or phytotoxicity of 70% to less than 90%),5 (A herbicidal effect or phytotoxicity of 90% or more),4 (A herbicidal effect or phytotoxicity of 70% to less than 90%),,,
O=S(=O)(Cc1c(F)cccc1F)C1=NOC2CCCCC12 (stereo not shown) [Compound 1-387],4 (A herbicidal effect or phytotoxicity of 70% to less than 90%),5 (A herbicidal effect or phytotoxicity of 90% or more),5 (A herbicidal effect or phytotoxicity of 90% or more),,,
O=S(=O)(Cc1c(F)cccc1F)C1=NOC2CCCCCC12 (stereo not shown) [Compound 1-388],5 (A herbicidal effect or phytotoxicity of 90% or more),5 (A herbicidal effect or phytotoxicity of 90% or more),5 (A herbicidal effect or phytotoxicity of 90% or more),,,
COCC1(C)CC([S+]([O-])Cc2c(F)cccc2F)=NO1 (stereo not shown) [Compound 1-396],5 (A herbicidal effect or phytotoxicity of 90% or more),5 (A herbicidal effect or phytotoxicity of 90% or more),4 (A herbicidal effect or phytotoxicity of 70% to less than 90%),,,
COCC1(C)CC(S(=O)(=O)Cc2c(F)cccc2F)=NO1 (stereo not shown) [Compound 1-397],,5 (A herbicidal effect or phytotoxicity of 90% or more),,4 (A herbicidal effect or phytotoxicity of 70% to less than 90%),,
CC12CCCCC1C(S(=O)(=O)Cc1c(F)cccc1F)=NO2 (stereo not shown) [Compound 1-493],4 (A herbicidal effect or phytotoxicity of 70% to less than 90%),5 (A herbicidal effect or phytotoxicity of 90% or more),5 (A herbicidal effect or phytotoxicity of 90% or more),,,
O=S(=O)(Cc1c(F)cccc1F)C1=NOCC1 [Compound 1-533],,5 (A herbicidal effect or phytotoxicity of 90% or more),,,,
CC1(C)CC(S(=O)(=O)Cc2cc([N+](=O)[O-])cc([N+](=O)[O-])c2)=NO1 [Compound 1-546],,5 (A herbicidal effect or phytotoxicity of 90% or more),,,4 (A herbicidal effect or phytotoxicity of 70% to less than 90%),5 (A herbicidal effect or phytotoxicity of 90% or more)
CC1(C)CC(S(=O)(=O)Cc2ccc(F)cc2C(F)(F)F)=NO1 [Compound 1-551],,5 (A herbicidal effect or phytotoxicity of 90% or more),,,5 (A herbicidal effect or phytotoxicity of 90% or more),5 (A herbicidal effect or phytotoxicity of 90% or more)
CCCCOc1cccc(F)c1CS(=O)(=O)C1=NOC(C)(C)C1 [Compound 1-571],,5 (A herbicidal effect or phytotoxicity of 90% or more),,5 (A herbicidal effect or phytotoxicity of 90% or more),,5 (A herbicidal effect or phytotoxicity of 90% or more)
CC(c1ccccc1C(F)(F)F)S(=O)(=O)C1=NOC(C)(C)C1 (stereo not shown) [Compound 1-575],,5 (A herbicidal effect or phytotoxicity of 90% or more),,,,
C#CCOC(=O)c1ccccc1CS(=O)(=O)C1=NOC(C)(C)C1 [Compound 1-600],,5 (A herbicidal effect or phytotoxicity of 90% or more),,,,5 (A herbicidal effect or phytotoxicity of 90% or more)
CCC1(C)CC(S(=O)(=O)Cc2c(C)ccc(C)c2C)=NO1 (stereo not shown) [Compound 1-617],,5 (A herbicidal effect or phytotoxicity of 90% or more),,,5 (A herbicidal effect or phytotoxicity of 90% or more),5 (A herbicidal effect or phytotoxicity of 90% or more)
COC(=O)c1cccc(Cl)c1CS(=O)(=O)C1=NOC(C)(C)C1 [Compound 1-618],,5 (A herbicidal effect or phytotoxicity of 90% or more),,,5 (A herbicidal effect or phytotoxicity of 90% or more),5 (A herbicidal effect or phytotoxicity of 90% or more)
CCOC(=O)c1cccc(Cl)c1CS(=O)(=O)C1=NOC(C)(C)C1 [Compound 1-619],,5 (A herbicidal effect or phytotoxicity of 90% or more),,,4 (A herbicidal effect or phytotoxicity of 70% to less than 90%),5 (A herbicidal effect or phytotoxicity of 90% or more)
CC(C)OC(=O)c1cccc(Cl)c1CS(=O)(=O)C1=NOC(C)(C)C1 [Compound 1-621],,5 (A herbicidal effect or phytotoxicity of 90% or more),,,4 (A herbicidal effect or phytotoxicity of 70% to less than 90%),5 (A herbicidal effect or phytotoxicity of 90% or more)
CS(=O)(=O)C1=NOC2(CC2)C1 [Compound 2-28],,5 (A herbicidal effect or phytotoxicity of 90% or more),,,,
